Experimental data from patent US20260217701A1, “SELECTIVE BET INHIBITORS AND USES THEREOF” (Tay Therapeutics Limited, priority 2022, published 2026).
Where “and” joins values, the source holds several entries; their conditions need not be identical. Equal entries are not always repeated.

Tested on: collagen-induced arthritis
Assay: Collagen-induced arthritis (CIA) model: clinical scores and paw volume; as to Average animal paw volume percent change (%): reference of the scale not given here; as to animal paw volume percent change (%): reference of the scale not given here
Type: in vivo, Lewis rats
Conditions: for Average animal paw volume / Average animal paw volume percent change (%) / Animal paw volume percent change (%): group 3 CIA + Dexamethasone; for Animal paw volume percent change (%) / clinical score left forelimb / clinical score left hind limb / clinical score right forelimb / clinical score right hind limb / clinical score, score (all limbs) / Animal paw volume: individual animals; for Overall Clinical Score: individual animals 1-8; for Animal paw volume: Group 3 (CIA + Dexamethasone)
[1] = group 3 CIA+ Dexamethasone, Day 18
[2] = group 3 CIA+ Dexamethasone, Day 19
[3] = group 3 CIA+ Dexamethasone, Day 20

Compound: C[C@@H]1C[C@H]2[C@@H]3CCC4=CC(=O)C=C[C@]4(C)[C@@]3(F)[C@@H](O)C[C@]2(C)[C@@]1(O)C(=O)CO [Dexamethasone, dexamethasone]
- Average animal paw volume (Day 0, L paw): 1.33 mL
- Average animal paw volume percent change (%) (Day 0, L paw): 0.00%
- Animal paw volume percent change (%) (Day 0, L paw): 0.00%
- Average animal paw volume (Day 0, R paw): 1.33 mL
- Average animal paw volume percent change (%) (Day 0, R paw): 0.00%
- Animal paw volume percent change (%) (Day 0, R paw): 0.00%
- Average detailed clinical score, left forelimb (Day 0, CIA): 0.00
- Average detailed clinical score, left hind limb (Day 0, CIA): 0.00
- Average detailed clinical score, right forelimb (Day 0, CIA): 0.00
- Average detailed clinical score, right hind limb (Day 0, CIA): 0.00
- Average detailed clinical score, score (Day 0, CIA): 0.00
- Average overall clinical score (Day 0, CIA): 0
- clinical score left forelimb (Day 0, CIA): 0
- clinical score left hind limb (Day 0, CIA): 0
- clinical score right forelimb (Day 0, CIA): 0
- clinical score right hind limb (Day 0, CIA): 0
- clinical score, score (all limbs) (Day 0, CIA): 0
- Overall Clinical Score (Day 0, CIA): 0
- Animal paw volume (Day 0, L paw): 1.35 mL and 1.31 mL and 1.39 mL and 1.33 mL and 1.30 mL (2×) and 1.34 mL and 1.36 mL
- Animal paw volume (Day 0, R paw): 1.34 mL and 1.30 mL (2×) and 1.38 mL and 1.35 mL and 1.29 mL and 1.36 mL and 1.37 mL
- Average animal paw volume (Day 6, L paw): 1.29 mL
- Average animal paw volume percent change (%) (Day 6, L paw): -3.37%
- Animal paw volume percent change (%) (Day 6, L paw): −2.97% and −1.53% and −3.61% and −3.02% and −3.09% and −3.08% and −4.12% and 5.51%
- Average animal paw volume (Day 6, R paw): 1.29 mL
- Average animal paw volume percent change (%) (Day 6, R paw): -3.26%
- Animal paw volume percent change (%) (Day 6, R paw): −3.00% and 1.16% and −2.91% and −3.72% and −1.56% and −2.70% and −5.90% and −5.13%
- Average detailed clinical score, left forelimb (Day 6, CIA): 0.00
- Average detailed clinical score, left hind limb (Day 6, CIA): 0.00
- Average detailed clinical score, right forelimb (Day 6, CIA): 0.00
- Average detailed clinical score, right hind limb (Day 6, CIA): 0.00
- Average detailed clinical score, score (Day 6, CIA): 0.00
- Average overall clinical score (Day 6, CIA): 0
- clinical score left forelimb (Day 6, CIA): 0
- clinical score left hind limb (Day 6, CIA): 0
- clinical score right forelimb (Day 6, CIA): 0
- clinical score right hind limb (Day 6, CIA): 0
- clinical score, score (all limbs) (Day 6, CIA): 0
- Overall Clinical Score (Day 6, CIA): 0
- Animal paw volume (Day 6, L paw): 1.31 mL and 1.29 mL (3×) and 1.34 mL and 1.28 mL
- Animal paw volume (Day 6, R paw): 1.30 mL (3×) and 1.28 mL (2×) and 1.34 mL and 1.27 mL
- Average animal paw volume (Day 12, L paw): 1.27 mL
- Average animal paw volume percent change (%) (Day 12, L paw): -4.94%
- Animal paw volume percent change (%) (Day 12, L paw): −10.41% and −7.66% and −1.44% and −3.40% and −1.54% and −6.54% and −3.00% and −5.51%
- Average animal paw volume percent change (%) (Day 12, R paw): -5.21%
- Animal paw volume percent change (%) (Day 12, R paw): −6.74% and −3.09% and 0.73% and −7.43% and −1.56% and −9.27% and −7.01% and −5.86%
- Average detailed clinical score, left forelimb (Day 12, CIA): 0.00
- Average detailed clinical score, left hind limb (Day 12, CIA): 0.00
- Average detailed clinical score, right forelimb (Day 12, CIA): 0.00
- Average detailed clinical score, right hind limb (Day 12, CIA): 0.00
- Average detailed clinical score, score (Day 12, CIA): 0.00
- Average overall clinical score (Day 12, CIA): 0
- clinical score left forelimb (Day 12, CIA): 0
- clinical score left hind limb (Day 12, CIA): 0
- clinical score right forelimb (Day 12, CIA): 0
- clinical score right hind limb (Day 12, CIA): 0
- clinical score, score (all limbs) (Day 12, CIA): 0
- Overall Clinical Score (Day 12, CIA): 0
- Animal paw volume (Day 12, L paw): 1.37 mL and 1.28 mL (2×) and 1.30 mL and 1.29 mL
- Animal paw volume (Day 12, R paw): 1.37 mL and 1.27 mL and 1.29 mL
- Average animal paw volume (Day 13, L paw): 1.28 mL
- Average animal paw volume percent change (%) (Day 13, L paw): -3.57%
- Animal paw volume percent change (%) (Day 13, L paw): −8.92% and −5.36% and 0.72% and −3.02% and 0.00% and 4.23% and −2.25% and −5.51%
- Average animal paw volume (Day 13, R paw): 1.28 mL
- Average animal paw volume percent change (%) (Day 13, R paw): -4.08%
- Animal paw volume percent change (%) (Day 13, R paw): −5.99% and −2.32% and 0.36% and −7.43% and −0.78% and −6.95% and −3.69% and 5.86%
- Average detailed clinical score, left forelimb (Day 13, CIA): 0
- Average detailed clinical score, left hind limb (Day 13, CIA): 0
- Average detailed clinical score, right forelimb (Day 13, CIA): 0
- Average detailed clinical score, right hind limb (Day 13, CIA): 0
- Average detailed clinical score, score (Day 13, CIA): 0
- Average overall clinical score (Day 13, CIA): 0
- clinical score left forelimb (Day 13, CIA): 0
- clinical score left hind limb (Day 13, CIA): 0
- clinical score right forelimb (Day 13, CIA): 0
- clinical score right hind limb (Day 13, CIA): 0
- clinical score, score (all limbs) (Day 13, CIA): 0
- Overall Clinical Score (Day 13, CIA): 0
- Animal paw volume (Day 13, L paw): 1.40 mL and 1.29 mL (2×) and 1.30 mL and 1.31 mL
- Animal paw volume (Day 13, R paw): 1.27 mL and 1.38 mL and 1.28 mL and 1.31 mL and 1.29 mL
- Average animal paw volume (Day 14, L paw): 1.27 mL
- Average animal paw volume percent change (%) (Day 14, L paw): -4.60%
- Animal paw volume percent change (%) (Day 14, L paw): −8.18% and −5.36% and 0.00% and −4.53% and −1.54% and −5.00% and −3.75% and −8.46%
- Average animal paw volume percent change (%) (Day 14, R paw): -5.07%
- Animal paw volume percent change (%) (Day 14, R paw): −5.62% and −2.70% and 0.00% and −8.92% and −2.33% and −7.72% and −5.17% and −8.06%
- Average detailed clinical score, left forelimb (Day 14, CIA): 0
- Average detailed clinical score, left hind limb (Day 14, CIA): 0
- Average detailed clinical score, right forelimb (Day 14, CIA): 0
- Average detailed clinical score, right hind limb (Day 14, CIA): 0
- Average detailed clinical score, score (Day 14, CIA): 0
- Average overall clinical score (Day 14, CIA): 0
- clinical score left forelimb (Day 14, CIA): 0
- clinical score left hind limb (Day 14, CIA): 0
- clinical score right forelimb (Day 14, CIA): 0
- clinical score right hind limb (Day 14, CIA): 0
- clinical score, score (all limbs) (Day 14, CIA): 0
- Overall Clinical Score (Day 14, CIA): 0
- Animal paw volume (Day 14, L paw): 1.39 mL and 1.27 mL and 1.28 mL and 1.29 mL
- Animal paw volume (Day 14, R paw): 1.38 mL and 1.29 mL
- Average animal paw volume percent change (%) (Day 15, L paw): −5.47%
- Animal paw volume percent change (%) (Day 15, L paw): −8.92% and −7.28% and −2.17%
- Average animal paw volume percent change (%) (Day 15, R paw): −5.41%
- Animal paw volume percent change (%) (Day 15, R paw): −6.74% and −4.25% and 1.45%
- Average detailed clinical score, left forelimb (Day 15, CIA): 0
- Average detailed clinical score, left hind limb (Day 15, CIA): 0
- Average detailed clinical score, right forelimb (Day 15, CIA): 0
- Average detailed clinical score, right hind limb (Day 15, CIA): 0
- Average detailed clinical score, score (Day 15, CIA): 0
- Average overall clinical score (Day 15, CIA): 0
- clinical score left forelimb (Day 15, CIA): 0
- clinical score left hind limb (Day 15, CIA): 0
- clinical score right forelimb (Day 15, CIA): 0
- clinical score right hind limb (Day 15, CIA): 0
- clinical score, score (all limbs) (Day 15, CIA): 0
- Overall Clinical Score (Day 15, CIA): 0
- Animal paw volume (Day 15, L paw): 1.36 mL and 1.28 mL and 1.33 mL and 1.27 mL
- Animal paw volume (Day 15, R paw): 1.36 mL and 1.27 mL (2×) and 1.32 mL
- Average animal paw volume (Day 18, L paw): 1.29 mL
- Average animal paw volume percent change (%) (Day 18, L paw): −3.01%
- Animal paw volume percent change (%) (Day 18, L paw): −5.20% and −6.51% and 4.33%
- Average animal paw volume (Day 18, R paw): 1.29 mL
- Average animal paw volume percent change (%) (Day 18, R paw): −3.14%
- Animal paw volume percent change (%) (Day 18, R paw): 4.49% and −4.63% and 4.36%
- Average detailed clinical score, left forelimb (Day 18, CIA): 0.00
- Average detailed clinical score, left hind limb (Day 18, CIA): 0.00
- Average detailed clinical score, right forelimb (Day 18, CIA): 0.00
- Average detailed clinical score, right hind limb (Day 18, CIA): 0.00
- Average detailed clinical score, score (Day 18, CIA): 0.00
- Average overall clinical score (Day 18, CIA): 0
- Overall Clinical Score (Day 18, CIA): 0
- Animal paw volume (Day 18, L paw): 1.28 mL and 1.45 mL and 1.31 mL and 1.29 mL and 1.34 mL and 1.30 mL
- Animal paw volume (Day 18, R paw): 1.28 mL and 1.44 mL and 1.31 mL and 1.29 mL (2×) and 1.34 mL
- Average animal paw volume (Day 19, L paw): 1.29 mL
- Average animal paw volume percent change (%) (Day 19, L paw): −3.33%
- Animal paw volume percent change (%) (Day 19, L paw): 5.20% and −6.90%
- Average animal paw volume (Day 19, R paw): 1.28 mL
- Average animal paw volume percent change (%) (Day 19, R paw): −3.57%
- Animal paw volume percent change (%) (Day 19, R paw): −5.24% and −6.18%
- Average detailed clinical score, left forelimb (Day 19, CIA): 0.00
- Average detailed clinical score, left hind limb (Day 19, CIA): 0.00
- Average detailed clinical score, right forelimb (Day 19, CIA): 0.00
- Average detailed clinical score, right hind limb (Day 19, CIA): 0.00
- Average detailed clinical score, score (Day 19, CIA): 0.00
- Average overall clinical score (Day 19, CIA): 0
- Overall Clinical Score (Day 19, CIA): 0
- Animal paw volume (Day 19, L paw): 1.28 mL (2×) and 1.44 mL and 1.30 mL (2×) and 1.33 mL
- Animal paw volume (Day 19, R paw): 1.27 mL (2×) and 1.44 mL and 1.31 mL and 1.32 mL and 1.30 mL
- Average animal paw volume (Day 21, L paw): 1.28 mL
- Average animal paw volume percent change (%) (Day 21, L paw): −3.56%
- Animal paw volume percent change (%) (Day 21, L paw): −6.32% and −6.90%
- Average animal paw volume (Day 21, R paw): 1.29 mL
- Average animal paw volume percent change (%) (Day 21, R paw): −3.51%
- Animal paw volume percent change (%) (Day 21, R paw): −5.99% and −6.18%
- Average detailed clinical score, left forelimb (Day 21, CIA): 0.00
- Average detailed clinical score, left hind limb (Day 21, CIA): 0.00
- Average detailed clinical score, right forelimb (Day 21, CIA): 0.00
- Average detailed clinical score, right hind limb (Day 21, CIA): 0.00
- Average detailed clinical score, score (Day 21, CIA): 0.00
- Average overall clinical score (Day 21, CIA): 0
- Overall Clinical Score (Day 21, CIA): 0
- Animal paw volume (Day 21, L paw): 1.43 mL and 1.31 mL (2×) and 1.30 mL (2×)
- Animal paw volume (Day 21, R paw): 1.43 mL and 1.31 mL and 1.30 mL (2×) and 1.32 mL
- clinical score left forelimb [1]: 0
- clinical score left hind limb [1]: 0
- clinical score right forelimb [1]: 0
- clinical score right hind limb [1]: 0
- clinical score, score (all limbs) [1]: 0
- clinical score left forelimb [2]: 0
- clinical score left hind limb [2]: 0
- clinical score right forelimb [2]: 0
- clinical score right hind limb [2]: 0
- clinical score, score (all limbs) [2]: 0
- clinical score left forelimb [3]: 0
- clinical score left hind limb [3]: 0
- clinical score right forelimb [3]: 0
- clinical score right hind limb [3]: 0
- clinical score, score (all limbs) [3]: 0
